Each block holds one compound with its values, some of them ahead of it.
Tests used:
[1] = Effect of pH on response to cations in 10% v/v DEGMEE (Table III); type: physicochemical
Method: (§1) The UV-VIS spectra of p-nitrophenylazophenol (1.1.0) cryptand in complexation with various ions, i.e. Na^+ K^+, and Li^+, were determined in 1 to 2×10^-4 M solutions of the cryptand in 2 to 50% volume to volume (v/v) DEGMEE in water. A 1×10^-2 M stock solution of the cryptand was prepared in DEGMEE. Typically, the solutions were prepared as follows: for the spectral characteristics in 10% v/v DEGMEE, 0.2 ml of the stock solution was added to 0.8 ml DEGMEE. The diluted cryptand was quantitatively transferred to 9.0 ml of the appropriate reagent and mixed. 1N HCl was used to obtain the acid form (HL) and 1M TMAOH for the base form of the cryptand which is designated in the following tables as L. Tne resulting solutions were scanned from 700 to 300 nm on a Beckman DU-8 spectrophotometer. The spectra of the cation complexes of p-nitrophenylazophenol (1.1.0) cryptand in 10% v/v DEGMEE/1M TMAOH were obtained by adding 0.02 ml LiCl, KCl, NaCl, all 1N to their respective cuvettes containing 2 ml of reagent and scanned from 700 to 300 nm.
A zwitterionic buffer CAPS was used (Table III).

[2] = Spectral response to lithium (analytical wavelength); type: physicochemical
Method: as §1

[3] = Selectivity for Li^+ over Na^+ and other cations (slopes of response curves); conditions: sample to reagent ratio 1:40
Description: By taking the ratio of the slope of the respective response curves, one obtains approximate selectivity of 4000:1 for Li^+ /Na^+.

[4] = UV-VIS spectra of the cryptand in complexation with various ions (Table I); type: physicochemical
Method: as §1
Table I records the wavelength maxima and absorptivities of p-nitrophenylazophenol (1.1.0) cryptand when exposed to Na^+, K^+ and Li^+ ions in 10% v/v DEGMEE.

[5] = Effect of non-ionic surfactant on wavelength maxima and absorptivities (first Table IV); type: physicochemical; conditions: Brij-35 and Triton X-100 at 1% w/v; cryptand and its lithium complex
Description: Non-ionic surfactants are known to interact with monoazo dyes producing a disturbance of the electronic spectrum.

[6] = pKa in 10% DEGMEE-water, determined spectrophotometrically (Table II); type: physicochemical; conditions: for pKa: spectrophotometric
[7] = Effect of organic solvent (DEGMEE) concentration on sensitivity and selectivity; conditions: 2.5% DEGMEE
Method: as §1
However, high concentration of solvent also affects the selectivity; at 25% DEGMEE, interference by 140 mM Na^+ corresponds to 0.1 mM Li^+, which is not acceptable for clinical purposes. The selectivity requirements of the lithium assay are high, in certain cases where the concentration of lithium is near 0.1 mM, the molar ratio of Li^+ :Na^+ is about 1:1500. […]

[8] = Ion selectivity and sensitivity of larger cavity cryptand analogs
[9] = 10% v/v DEGMEE, HL in 1N HCl, L and complexes in 1M TMAOH

- wavelength of decrease in absorbance with lithium [2]: 600 nm
- wavelength of increase of the lithium complex [2]: 534 nm
- pKa compared with larger cavity analogs or usual [6]: Higher than usual pKa
- pKa [6]: 12.6
SMILES: O=[N+]([O-])c1ccc(N=Nc2cc3c(O)c(c2)CCN2CCOCCN(CCOCC2)CC3)cc1 [p-nitrophenylazophenol (1.1.0) cryptand]
- shift and absorptivity change with pH [1]: bathochromic shift with concurrent increase in absorptivity
- selectivity over sodium [3]: almost total selectivity over sodium
- wavelength maxima and absorptivities of acid form ([4]; acid form): two wavelength maxima (Table I) of equivalent absorptivities
- effect of surfactant on λmax and absorptivities [5]: substantial bathochromic shift of the λmax and an increase in the absorptivities
- reduction of response to lithium [7]: 25%

- pKa [6]: 11.1
SMILES: O=[N+]([O-])c1ccc(N=Nc2cc3c(O)c(c2)CCN2CCOCCOCCN(CCOCCOCC2)CC3)cc1 [(2.2.0) cryptand, reference compound]
- selectivity and sensitivity ([8]; effect of increased cavity size): more selective for potassium over sodium and lithium

- pKa [6]: 11.5
SMILES: O=[N+]([O-])c1ccc(N=Nc2cc3c(O)c(c2)CCCN2CCOCCN(CCC3)CCOCC2)cc1 [extended (1.1.0) cryptand]
- response to lithium ([8]; extraction mode): very good response to lithium in the extraction mode

- λmax 1 [4, 9]: 494 nm
- λmax 2 [4, 9]: 363 nm
- ε 1 ([4]; absorptivity at λmax 1, 10% v/v DEGMEE): 8,800 M^-1 cm^-1
- ε 2 ([4]; absorptivity at λmax 2, 10% v/v DEGMEE): 8,000 M^-1 cm^-1
SMILES: O=[N+]([O-])c1ccc(N=Nc2cc3c(O)c(c2)CCN2CCOCCN(CCOCC2)CC3)cc1 [HL]

Source: patent US5187103A, “Colorimetric method and reagent for the assay of lithium in a test sample” (Miles Inc., priority 1991, dated 1993)
